The nature of data set [1]: Acid dissociation constant pKa of saturated aliphatic carboxylic acids. It counts as physicochemical. The following applies: for pKa1: first acid dissociation constant; for pKa2: second acid dissociation constant. The source says:
The acid dissociation constant pKa1 of the saturated aliphatic carboxylic acid is preferably 4.0 or more, more preferably 4.0 to 4.5, still more preferably 4.1 to 4.5. If the saturated aliphatic carboxylic acid is divalent or more polyvalent, the second acid dissociation constant pKa2 is preferably 5.0 or more. The acid dissociation constant pKa can be measured by, for example, titration, absorptiometry, or capillary electrophoresis.

The nature of data set [2]: Redispersibility after long-time storage (rate of change in absorbance of agitated ink after one year). Format: physicochemical. The conditions noted are these: redispersing effect of the saturated aliphatic carboxylic acid in the ink. The protocol:
Ink bags containing respective ink compositions were allowed to stand at room temperature (25° C.) with the rectangular face of the ink bag in a horizontal position for a year. […] Subsequently, the ink bag was turned upside down and was reciprocally moved 50 times in the same manner with the rectangular face of the ink gab in a horizontal position. After the ink composition in the ink bag was thus agitated, the ink composition was sampled from the upper side in the ink gab with the ink inlet facing up. Then, the absorbance of the sampled ink composition was measured with a spectrophotometer U-3300 (manufactured by Hitachi) and compared with the absorbance before the storage. […] As a larger amount of sediment settles, the density of the white pigment in the ink composition tends to be reduced, and accordingly the absorbance after storage is generally low.

In data set [1], `O=C(O)CCCCC(=O)O` [Adipic acid] displayed a pKa1 of 4.26 and a pKa2 of 5.03. Besides, the Redispersion result in data set [2] is given as “Excellent”.

In data set [1], `O=C(O)CCC(=O)O` [Succinic acid] yielded a pKa1 of 4 and a pKa2 of 5.24. Moreover, the Redispersion entry in data set [2] is listed as “Good”.

With `CCCCCCCCCCCCCCCC(=O)O` [Palmitic acid], in data set [1], the pKa1 is listed as 4.64. In addition, the Redispersion entry in data set [2] was “Good”.

In data set [1], `O=C(O)CC(O)(CC(=O)O)C(=O)O` [Citric acid] returned a pKa1 of 2.87 and a pKa2 of 4.35. The pKa3 in data set [1] (third acid dissociation constant) is 5.69. Besides, in data set [2], the Redispersion result is reported as “Fair”.

Source of the values: patent US9499705B2, “Radically polymerizable photo-curable ink jet ink composition” (Seiko Epson Corporation, priority 2013, dated 2016).
